Results taken from publication PMC9097188, “Design, Synthesis, and Molecular Modeling Studies of a Novel Benzimidazole as an Aromatase Inhibitor” (ACS Omega, 2022).
Read-outs that look alike come from different tables or passages of the source.

How the values were obtained:
[1] = tested on: A549 (lung carcinoma cell line); assay: MTT cytotoxicity assay, A549; format: cell-based; details: Homo sapiens, mean of four independent studies, read-out: IC50 against A549
Procedure: (§1) In this study, all compounds were tested for antiproliferative activity using an MTT assay with doxorubicin as a control against MCF-7 (human breast adenocarcinoma cell line), A549 (lung carcinoma cell line), HepG2 (human liver carcinoma cell line), HeLa (cervical cell line), and C6 (rat glioma cell line) cell lines. Table 1 summarizes the results of four independent studies as the mean IC50 value (half-maximum inhibitory concentration).
(§2) MTT tests were used to screen the anticancer activities of compounds 5a–i. The MTT assays were carried out as stated previously.[16],[17] The anticancer activity of the final compounds was tested on […]: A549 (lung carcinoma cell line), HeLa (cervical cell line), MCF-7 (human breast adenocarcinoma cell line), HepG2 (human liver carcinoma cell line), C6 (rat glioma cell line), and NIH3T3 […] (mouse embryo fibroblast cell line). In the MTT experiments, doxorubicin and Hoechst 33342 were employed as reference drugs.

[2] = tested on: MCF-7 (human breast adenocarcinoma cell line); assay: MTT cytotoxicity assay, MCF-7; format: cell-based; details: mean of four independent studies, read-out: IC50 against MCF-7
Procedure: as §1, §2

[3] = tested on: C6 (rat glioma cell line); assay: MTT cytotoxicity assay, C6; format: cell-based; details: mean of four independent studies, read-out: IC50 against C6
Procedure: as §1, §2

[4] = tested on: HepG2 (human liver carcinoma cell line); assay: MTT cytotoxicity assay, HepG2; format: cell-based; details: mean of four independent studies, read-out: IC50 against HepG2
Procedure: as §1, §2

[5] = tested on: HeLa (cervical cell line); assay: MTT cytotoxicity assay, HeLa; format: cell-based; details: Homo sapiens, mean of four independent studies, read-out: IC50 against HeLa
Procedure: as §1, §2

human aromatase = target: T1, human aromatase (Homo sapiens, UniProt P11511); assay: Aromatase (CYP19A) Inhibitor Screening Kit (Fluorimetric), BioVision; format: biochemical
T1 construct: purchased BioVision
T1 sequence (P11511 1-503): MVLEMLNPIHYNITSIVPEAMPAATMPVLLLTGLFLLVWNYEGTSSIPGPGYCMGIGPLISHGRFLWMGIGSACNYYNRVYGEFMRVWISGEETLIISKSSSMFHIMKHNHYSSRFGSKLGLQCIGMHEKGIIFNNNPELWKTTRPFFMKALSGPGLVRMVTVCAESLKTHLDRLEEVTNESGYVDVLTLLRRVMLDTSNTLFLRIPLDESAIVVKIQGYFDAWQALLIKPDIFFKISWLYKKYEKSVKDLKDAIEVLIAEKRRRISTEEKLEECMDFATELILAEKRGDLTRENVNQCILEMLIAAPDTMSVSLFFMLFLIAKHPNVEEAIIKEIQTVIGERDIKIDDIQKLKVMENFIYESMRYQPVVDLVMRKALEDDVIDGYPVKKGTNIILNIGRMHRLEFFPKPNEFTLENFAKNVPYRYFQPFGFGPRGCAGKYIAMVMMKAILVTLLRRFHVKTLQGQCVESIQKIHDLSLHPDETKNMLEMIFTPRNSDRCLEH
Excerpt: An in vitro fluorescence-based test (Aromatase (CYP19A) Inhibitor Screening Kit (Fluorimetric), BioVision) was used to determine the inhibitory activity of the produced compounds against human aromatase.
The BioVision Aromatase (CYP19A) Inhibitor Screening Kit (Fluorometric) was used to carry out this experiment.

aromatase = details: 3D-QSAR data set, IC50 converted to pIC50; SI reference list; cited from earlier work
[6] = fluorimetric kit, compound dissolved in acetonitrile, read-out: IC50 aromatase inhibition
[7] = experimental validation of 3D-QSAR model, read-out: IC50 (aromatase, Table 5)

Row | SMILES | IC50 [1] [µM] | IC50 ([2]; Homo sapiens, MCF7, MTT assay) [µM] | IC50 [3] [µM] | IC50 [4] [µM] | melting point [°C] | Experimental pIC50 (aromatase) | other results
1 | CCOc1ccc(-c2nc3ccc(-c4nnc(SCC(=O)N5CCN(Cc6ccccc6)CC5)o4)cc3[nH]2)cc1 [5g, 2-((5-(2-(4-Ethoxyphenyl)-1H-benzo[d]imidazol-6-yl)-1,3,4-oxadiazol-2-yl)thio)-1-(4-benzylpiperazin-1-yl)ethan-1-one] | ≥ 100 | ≥ 100 | ≥ 100 | ≥ 100 | 184.4 to 186.8 | – | IC50 [5]: ≥ 100 µM
2 | COc1ccc(-c2nc3ccc(-c4nnc(SCC(=O)N5CCN(Cc6ccccc6)CC5)o4)cc3[nH]2)cc1 [5d, 2-((5-(2-(4-Methoxyphenyl)-1H-benzo[d]imidazol-6-yl)-1,3,4-oxadiazol-2-yl)thio)-1-(4-benzylpiperazin-1-yl)ethan-1-one] | ≥ 100 | ≥ 100 | 88.5 ± 3.41 | ≥ 100 | 172.6 to 174.8 | – | IC50 [5]: ≥ 100 µM
3 | O=C(CSc1nnc(-c2ccc3nc(-c4ccc(O)cc4)[nH]c3c2)o1)N1CCN(Cc2ccccc2)CC1 [5a, 2-((5-(2-(4-Hydroxyphenyl)-1H-benzo[d]imidazol-6-yl)-1,3,4-oxadiazol-2-yl)thio)-1-(4-benzylpiperazin-1-yl)ethan-1-one] | ≥ 100 | 9.96 ± 0.312 | ≥ 100 | 38.8 ± 0.887 | 266.5 to 267.9 | – | IC50 ([2]; MTT assay): 9.06 ± 0.311 µM; IC50 [5]: ≥ 100 µM; IC50 (human aromatase; [6]): 38.6 ± 1.13 µM
4 | O=C(CSc1nnc(-c2ccc3nc(-c4ccc(O)cc4)[nH]c3c2)o1)N1CCN(Cc2ccc(Cl)cc2)CC1 [5b, 2-((5-(2-(4-Hydroxyphenyl)-1H-benzo[d]imidazol-6-yl)-1,3,4-oxadiazol-2-yl)thio)-1-(4-(4-chlorobenzyl)piperazin-1-yl)ethan-1-one] | ≥ 100 | 5.13 ± 0.211 | 24.7 ± 1.21 | 55.2 ± 1.46 | 155.5 to 157.4 | – | IC50 ([2]; MTT assay): 6.55 ± 0.287 µM; IC50 [5]: ≥ 100 µM; IC50 (human aromatase; [7]): 1.48 µM; IC50 (human aromatase; [6]): 1.47 ± 0.062 µM
5 | COc1cccc2c1C(=O)c1c(O)c3c(c(O)c1C2=O)C[C@@](O)(C(=O)CO)C[C@@H]3O[C@H]1C[C@H](N)[C@H](O)[C@H](C)O1 [Dox., doxorubicin] | – | – | 28.7 ± 1.23 | – | – | – | –
6 | O=C(CSc1nnc(-c2ccc3nc(-c4ccc(O)cc4)[nH]c3c2)o1)N1CCN(Cc2ccc(F)cc2)CC1 [5c, 2-((5-(2-(4-Hydroxyphenyl)-1H-benzo[d]imidazol-6-yl)-1,3,4-oxadiazol-2-yl)thio)-1-(4-(4-fluorobenzyl)piperazin-1-yl)ethan-1-one] | ≥ 100 | 6.55 ± 0.287 | 18.2 ± 1.46 | 17.3 ± 1.1 | > 400 | – | IC50 ([2]; MTT assay): 5.13 ± 0.211 µM; IC50 (human aromatase; [7]): 2.51 µM; IC50 (human aromatase; [6]): 2.51 ± 0.124 µM
7 | CCOc1ccc(-c2nc3ccc(-c4nnc(SCC(=O)N5CCN(Cc6ccc(Cl)cc6)CC5)o4)cc3[nH]2)cc1 [5h, 2-((5-(2-(4-Ethoxyphenyl)-1H-benzo[d]imidazol-6-yl)-1,3,4-oxadiazol-2-yl)thio)-1-(4-(4-chlorobenzyl)piperazin-1-yl)ethan-1-one] | ≥ 100 | ≥ 100 | ≥ 100 | ≥ 100 | 177.5 to 178.4 | – | IC50 [5]: ≥ 100 µM
8 | CCn1c([C@@H](c2ccc(F)cc2)n2ccnc2)c(C)c2ccccc21 [73R] | – | – | – | – | – | 6.921 | –
9 | CCn1c([C@H](c2cccc(Cl)c2)n2ccnc2)c(C)c2cc(Br)ccc21 [69S] | – | – | – | – | – | 6.027 | –
10 | O=[N+]([O-])c1ccc(S(=O)(=O)NCCc2c(C(c3ccccc3O)c3[nH]c4ccccc4c3CCNS(=O)(=O)c3ccc([N+](=O)[O-])cc3)[nH]c3ccccc23)cc1 [compound 51] | – | – | – | – | – | 5.553 | –
11 | Clc1ccccc1-n1cc(Cn2cncn2)c2ccccc21 [compound 113] | – | – | – | – | – | 5.456 | –
12 | Cc1ccc2nc(-c3ccc(-c4nnc5n4N=C(c4ccc(C#N)cc4)CS5)cc3)[nH]c2c1 [compound 81] | – | – | – | – | – | 5.871 | –
13 | COc1ccc(-c2nc3ccc(-c4nnc(SCC(=O)N5CCN(Cc6ccc(Cl)cc6)CC5)o4)cc3[nH]2)cc1 [5e, 2-((5-(2-(4-Methoxyphenyl)-1H-benzo[d]imidazol-6-yl)-1,3,4-oxadiazol-2-yl)thio)-1-(4-(4-chlorobenzyl)piperazin-1-yl)ethan-1-one] | ≥ 100 | 45.6 ± 2.11 | ≥ 100 | ≥ 100 | 138.2 to 140.1 | – | IC50 [5]: ≥ 100 µM
14 | CCn1cc([C@@H](c2ccc(F)cc2)n2cncn2)c2cc(Br)ccc21 [123R] | – | – | – | – | – | 5.149 | –
15 | O[C@](c1cccnc1)(c1cc2ccccc2o1)c1ccc(Cl)cc1Cl [87S] | – | – | – | – | – | 5.658 | –
16 | COc1ccc(S(=O)(=O)NCCc2c(C3(c4[nH]c5ccccc5c4CCNS(=O)(=O)c4ccc(OC)cc4)C(=O)Nc4ccccc43)[nH]c3ccccc23)cc1 [compound 59] | – | – | – | – | – | 5.553 | –
17 | OCc1cn(-c2cccc(F)c2)c2ccccc12 [compound 110] | – | – | – | – | – | 7.086 | –
18 | COc1ccc(S(=O)(=O)NCCc2c(C(c3ccccc3O)c3[nH]c4ccccc4c3CCNS(=O)(=O)c3ccc(OC)cc3)[nH]c3ccccc23)cc1 [compound 52] | – | – | – | – | – | 6.097 | –
19 | N#Cc1ccc(-n2cc(CO)c3ccccc32)cc1 [compound 111] | – | – | – | – | – | 7.301 | –
20 | O=S(=O)(NCCc1c(C(c2ccc(O)cc2)c2[nH]c3ccccc3c2CCNS(=O)(=O)c2ccc(Cl)cc2)[nH]c2ccccc12)c1ccc(Cl)cc1 [compound 47] | – | – | – | – | – | 5.854 | –
21 | O[C@@](c1cccnc1)(c1cc2ccccc2o1)c1ccc(Cl)cc1Cl [87R] | – | – | – | – | – | 5.658 | –
22 | COc1ccc(-c2nc3ccc(-c4nnc(SCC(=O)N5CCN(Cc6ccc(F)cc6)CC5)o4)cc3[nH]2)cc1 [5f, 2-((5-(2-(4-Methoxyphenyl)-1H-benzo[d]imidazol-6-yl)-1,3,4-oxadiazol-2-yl)thio)-1-(4-(4-fluorobenzyl)piperazin-1-yl)ethan-1-one] | ≥ 100 | ≥ 100 | ≥ 100 | ≥ 100 | 133.4 to 135.8 | – | IC50 [5]: ≥ 100 µM
23 | O=[N+]([O-])c1ccc(S(=O)(=O)NCCc2c(C(c3ccc(O)cc3)c3[nH]c4ccccc4c3CCNS(=O)(=O)c3ccc([N+](=O)[O-])cc3)[nH]c3ccccc23)cc1 [compound 49] | – | – | – | – | – | 5.638 | –
24 | COc1ccc(-n2c(Cn3ccnc3)cc3ccccc32)cc1 [compound 12] | – | – | – | – | – | 7.111 | –
25 | O=S(=O)(Cc1ccccc1)NCCc1c[nH]c2ccccc12 [compound 64] | – | – | – | – | – | 6.125 | –
26 | CCOc1ccc(-c2nc3ccc(-c4nnc(SCC(=O)N5CCN(Cc6ccc(F)cc6)CC5)o4)cc3[nH]2)cc1 [5i, 2-((5-(2-(4-Ethoxyphenyl)-1H-benzo[d]imidazol-6-yl)-1,3,4-oxadiazol-2-yl)thio)-1-(4-(4-fluorobenzyl)piperazin-1-yl)ethan-1-one] | 4.52 ± 0.21 | 9.06 ± 0.311 | 6 ± 0.227 | 28.7 ± 1.22 | 189.9 to 191.4 | – | IC50 ([2]; MTT assay): 9.96 ± 0.312 µM; IC50 [5]: 42 ± 1.32 µM; IC50 (human aromatase; [6]): 80.4 ± 3.12 µM
27 | Cc1ccc2cc(Cn3ccnc3)n(-c3ccc(C#N)cc3)c2c1 [compound 19] | – | – | – | – | – | 7.568 | –
28 | O=S(=O)(NCCc1c(C(c2ccc(Br)cc2)c2[nH]c3ccccc3c2CCNS(=O)(=O)c2ccc(Cl)cc2)[nH]c2ccccc12)c1ccc(Cl)cc1 [compound 38] | – | – | – | – | – | 5.569 | –
29 | O=[N+]([O-])c1ccc(C(c2[nH]c3ccccc3c2CCNS(=O)(=O)c2ccc(Br)cc2)c2[nH]c3ccccc3c2CCNS(=O)(=O)c2ccc(Br)cc2)cc1 [compound 32] | – | – | – | – | – | 5.569 | –
30 | O=S(=O)(NCCc1c(C(c2ccc(C(F)(F)F)cc2)c2[nH]c3ccccc3c2CCNS(=O)(=O)c2ccc(Cl)cc2)[nH]c2ccccc12)c1ccc(Cl)cc1 [compound 44] | – | – | – | – | – | 5.495 | –
